The text below walks through data of paper PMC4491105, “Synthesis and anticancer activity of thiosubstituted purines” (Medicinal Chemistry Research, 2015).

≈ marks a conversion by molar mass, not a printed value. Entries after “also recorded” stand apart in the source; their conditions may differ.

Data set [1] relates to C-32 (human amelanotic melanoma). The experiment in a line: Antiproliferative WST-1 assay, melanoma C-32. Type of data set: cell-based. To be noted: C-32 cells; for EC50: Homo sapiens, C32. How it is done:
(§1) Compounds were evaluated for their anticancer activity using […] cultured cell lines: SNB-19 (human glioblastoma, DSMZ—German Collection of Microorganisms and Cell Cultures, Braunschweig, Germany), C-32 (human amelanotic melanoma, ATCC—American Type Culture Collection, Manassas, VA, USA), T47D (human ductal breast epithelial tumor cell line, ATCC, Manassas, VA, USA), and HFF-1 (human fibroblast cell line, ATCC, Manassas, VA, USA). The cultured cells were kept at 37 °C and 5 % CO2. The cells were seeded (1 × 10^4 cells/well/100 μl DMEM supplemented with 10 % FCS and streptomycin and penicillin) using 96-well plates (Corning).
(§2) In recent years, tetrazolium salts have been described which can be used for the measurement of cell proliferation and viability. The tetrazolium salts are cleaved to formazan by cellular enzymes. An expansion in the number of viable cells results in an increase in the overall activity of mitochondrial dehydrogenases in the sample. This augmentation in enzyme activity leads to an increase in the amount of formazan dye formed, which directly correlates with the number of metabolically active cells in the culture. The formazan dye produced by metabolically active cells is quantified by a scanning ELISA reader by measuring the absorbance of the dye solution at appropriate wavelengths (λ = 420–480 nm with a reference wavelength λ = 600 nm).
(§3) Antiproliferative effect of compounds was determined using the Cell Proliferation Reagent WST-1 assay (Roche Diagnostics, Mannheim, Germany). After exposure to tested compounds (at concentrations between 0 and 100 μg/ml) for 72 h, cells were incubated with WST-1 (10 μl) for 1 h, and the absorbance of the samples against a background control was read at 450 nm using with a reference wavelength λ = 600 nm a microplate reader. Results are expressed as means of at least two independent experiments performed in triplicate.
(Tetrazolium dyes change colour on reduction, which living cells bring about.)

For data set [2], the system named is SNB-19 (human glioblastoma). Briefly: Antiproliferative WST-1 assay, glioblastoma SNB-19. Type of data set: cell-based. To be noted: for EC50: Homo sapiens, SNB-19, 72 h, read-out: Antiproliferative activity EC50 SBN-19; for EC50 / Antiproliferative activity EC50 SBN-19 / Activity against SNB-19 cell line (in words): SNB-19 cells; for EC50 / Antiproliferative activity EC50 SBN-19: 72 h exposure, WST-1; for Activity against SNB-19 cell line (in words): compared with azathioprine. As for the experimental part: as §1, §2, §3

The subject of data set [3] is T47D (human ductal breast epithelial tumor cell line). Briefly: Antiproliferative WST-1 assay, breast tumor T47D. Type of data set: cell-based. The note with it: T47D cells; for EC50: Homo sapiens, read-out: Antiproliferative activity EC50 T47-D. As for the experimental part:
as §1, §2, §3

The subject of data set [4] is HFF-1 (human fibroblast cell line). Briefly: Antiproliferative WST-1 assay, normal fibroblasts HFF-1 (toxicity control). Type of data set: cell-based. How it is done:
as §1, §2, §3

Where [5] appears, read: normal human fibroblasts HFF-1, 72 h exposure, WST-1.

`Cn1cnc([N+](=O)[O-])c1Sc1ncnc2nc[nH]c12` [Azathioprine, reference compound]: the 50% effective concentration (EC50) (as a rule, the concentration needed to bring the measured effect to its halfway point) was found to be 35.6 µg/mL (≈ 128 µM) in data set [1] (72 h exposure, WST-1); 37.2 µg/mL (≈ 134 µM) in data set [2]; 39 µg/mL (≈ 141 µM) in data set [3] (72 h exposure, WST-1); 55.9 µg/mL (≈ 202 µM) in data set [4] (setting [5]).
Regarding `N.N.[Cl][Pt][Cl]` [Cisplatin, reference compound], in data set [1] (72 h exposure, WST-1), the “Antiproliferative activity EC50 C-32” value stood at 6.28 µg/mL. The “Antiproliferative activity EC50 SBN-19” value in data set [2] was determined as 4.45 µg/mL. The “Antiproliferative activity EC50 T47-D” value in data set [3] (72 h exposure, WST-1) was determined as 8.79 µg/mL. Further, in data set [4] (setting [5]), the “Antiproliferative activity EC50 HFF-1” value amounted to 30.00 µg/mL.
With `Cn1cnc([N+](=O)[O-])c1Sc1nc(Cl)c2c(ncn2C)n1` [Compound 2a], the “Activity against C-32 cell line (in words)” value in data set [1] is “more active than azathioprine”. For the same compound, the EC50 in data set [1] (72 h exposure, WST-1) is 21.8 µg/mL (≈ 66.8 µM); in data set [2], 17.9 µg/mL (≈ 55 µM); in data set [3] (72 h exposure, WST-1), 41.1 µg/mL (≈ 126 µM); in data set [4] (setting [5]) it was over 50 µg/mL. Further, the “Activity against SNB-19 cell line (in words)” value in data set [2] is recorded as “more active than azathioprine”.
Turning to `C=CCSc1nc(Sc2c([N+](=O)[O-])ncn2C)nc2ncn(C)c12` [Compound 2b], the “Activity against C-32 cell line (in words)” value in data set [1] is on record as “more active than azathioprine”. Also, the EC50 in data set [1] (72 h exposure, WST-1) is 35.3 µg/mL (≈ 97.2 µM); in data set [2] it was 33.3 µg/mL (≈ 91.5 µM); in data set [3] (72 h exposure, WST-1), 49.6 µg/mL (≈ 136 µM); in data set [4] (setting [5]), over 50 µg/mL. Also, in data set [2], the “Activity against SNB-19 cell line (in words)” value was “more active than azathioprine”.
For `Cn1cnc([N+](=O)[O-])c1Sc1nc(Cl)nc2ncn(C)c12` [Compound 3a], the “Activity against C-32 cell line (in words)” value in data set [1] was “more active than azathioprine; also recorded: good activity”. In addition, the EC50 in data set [1] (72 h exposure, WST-1) is 12.8 µg/mL (≈ 39.3 µM); in data set [2], 30.4 µg/mL (≈ 93.3 µM); in data set [3] (72 h exposure, WST-1) it was over 50 µg/mL; in data set [4] (setting [5]), 34.9 µg/mL (≈ 107 µM). The “Activity against SNB-19 cell line (in words)” value in data set [2] is given as “more active than azathioprine”.
Take `COc1nc(Sc2c([N+](=O)[O-])ncn2C)c2c(ncn2C)n1` [Compound 3b]: the EC50 is over 50 µg/mL in data set [1] (72 h exposure, WST-1); over 50 µg/mL in data set [2]; over 50 µg/mL in data set [3] (72 h exposure, WST-1); over 50 µg/mL in data set [4] (setting [5]).
`CSc1nc(Sc2c([N+](=O)[O-])ncn2C)c2c(ncn2C)n1` [Compound 3c]: the EC50 in data set [1] (72 h exposure, WST-1) is over 50 µg/mL; in data set [2], over 50 µg/mL; in data set [3] (72 h exposure, WST-1), 48.6 µg/mL (≈ 144 µM); in data set [4] (setting [5]), over 50 µg/mL.
Regarding `Cn1cnc([N+](=O)[O-])c1Sc1nc(Sc2c([N+](=O)[O-])ncn2C)c2c(ncn2C)n1` [Compound 3d, 7-methyl-2,6-di(1-methyl-4-nitroimidazol-5-ylthio)purine], the concentration for a half-maximal effect (EC50) was over 50 µg/mL in data set [1] (72 h exposure, WST-1); over 50 µg/mL in data set [2]; over 50 µg/mL in data set [3] (72 h exposure, WST-1); over 50 µg/mL in data set [4] (setting [5]). The “Anticancer activity against tested cell lines (in words)” value in data set [2] (SNB-19, C-32 and T47D cell lines overall) was “inactive”.
Consider `CCN(CC)CCSc1nc(Cl)nc2ncn(C)c12` [Compound 4a], for which the EC50 in data set [1] (72 h exposure, WST-1) is 22.5 µg/mL (≈ 74.9 µM); in data set [2], 28.8 µg/mL (≈ 96 µM); in data set [3] (72 h exposure, WST-1), 41.3 µg/mL (≈ 138 µM); in data set [4] (setting [5]) it was over 50 µg/mL.
As for `CN(C)CCCSc1nc(Cl)nc2ncn(C)c12` [Compound 4b], the EC50 in data set [1] (72 h exposure, WST-1) is over 50 µg/mL; in data set [2], under 10 µg/mL; in data set [3] (72 h exposure, WST-1), over 50 µg/mL; in data set [4] (setting [5]) it was over 50 µg/mL. Further, in data set [2], the “Antiproliferative activity EC50 SBN-19” value was 8.45 µg/mL.
Turning to `CCN(CC)CCSc1nc(SCCN(CC)CC)c2c(ncn2C)n1` [Compound 4c], the EC50 is 33.5 µg/mL (≈ 84.6 µM) in data set [1] (72 h exposure, WST-1); under 10 µg/mL in data set [2]; 24 µg/mL (≈ 60.5 µM) in data set [3] (72 h exposure, WST-1); 40 µg/mL (≈ 101 µM) in data set [4] (setting [5]). Moreover, in data set [2], the “Antiproliferative activity EC50 SBN-19” value was found to be 9.82 µg/mL.
As for `CN(C)CCCSc1nc(SCCCN(C)C)c2c(ncn2C)n1` [Compound 4d], the EC50 in data set [1] (72 h exposure, WST-1) was over 50 µg/mL; in data set [2], 36.3 µg/mL (≈ 98.4 µM); in data set [3] (72 h exposure, WST-1), over 50 µg/mL; in data set [4] (setting [5]), over 50 µg/mL.
For the compound `Cn1cnc2nc(SCCN3CCCC3)nc(SCCN3CCCC3)c21` [Compound 4e], the EC50 in data set [1] (72 h exposure, WST-1) is 27.1 µg/mL (≈ 68.9 µM); in data set [2] it was under 10 µg/mL; in data set [3] (72 h exposure, WST-1) it was 38.4 µg/mL (≈ 97.8 µM); in data set [4] (setting [5]), 35.4 µg/mL (≈ 90.2 µM). Moreover, the “Antiproliferative activity EC50 SBN-19” value in data set [2] is 7.95 µg/mL.
For `Cn1cnc2nc(SCCN3CCCCC3)nc(SCCN3CCCCC3)c21` [Compound 4f], the EC50 in data set [1] (72 h exposure, WST-1) was 21.8 µg/mL (≈ 51.8 µM); in data set [2], under 10 µg/mL; in data set [3] (72 h exposure, WST-1), 32.2 µg/mL (≈ 76.7 µM); in data set [4] (setting [5]), 45.5 µg/mL (≈ 108 µM). For the same compound, the “Antiproliferative activity EC50 SBN-19” value in data set [2] stood at 9.18 µg/mL.
`Cn1cnc2nc(SCCN3CCOCC3)nc(SCCN3CCOCC3)c21` [Compound 4g]: the EC50 is over 50 µg/mL in data set [1] (72 h exposure, WST-1); over 50 µg/mL in data set [2]; over 50 µg/mL in data set [3] (72 h exposure, WST-1); over 50 µg/mL in data set [4] (setting [5]).
In the case of `C#CCSc1nc(Cl)nc2ncn(C)c12` [Compound 5a, 2-chloro-6-(prop-2-ynylthio)-7-methylpurine], the melting point (as a rule, the temperature of the solid-liquid transition) lay in the range of 183 to 184 °C. The same compound had an EC50 in data set [1] (72 h exposure, WST-1) of 35.4 µg/mL (≈ 148 µM). In addition, the EC50 in data set [2] turned out to be 30.9 µg/mL (≈ 130 µM). Moreover, the EC50 in data set [3] (72 h exposure, WST-1) was 44.3 µg/mL (≈ 186 µM). In data set [4] (setting [5]), the EC50 was 49 µg/mL (≈ 205 µM).
`Cn1cnc2nc(Cl)nc(SCC#CCN3CCCC3)c21` [Compound 5b, 2-chloro-6-(4-N-pyrrolidinylbut-2-ynylthio)-7-methylpurine] displayed a melting point of 129 to 130 °C. In addition, the EC50 in data set [1] (72 h exposure, WST-1) turned out to be 7.58 µg/mL (≈ 23.6 µM). Moreover, the EC50 in data set [2] worked out at 5 µg/mL (≈ 15.5 µM). Besides, in data set [3] (72 h exposure, WST-1), the EC50 amounted to 46 µg/mL (≈ 143 µM). In addition, in data set [3], the “Activity against T47D cell line (in words)” value was “weak active”. Moreover, the “Toxicity against normal fibroblasts HFF-1 (in words)” value in data set [4] (HFF-1 cells) is “weak active”. Also, the midpoint of the response in data set [4] (setting [5]), the EC50, lay at 43.1 µg/mL (≈ 134 µM).
For the compound `Cn1cnc2nc(Cl)nc(S(N)(=O)=O)c21` [Compound 8a, 2-Chloro-7-methyl-6-purinesulfonamide], the EC50 in data set [1] (72 h exposure, WST-1) was over 50 µg/mL; in data set [2], over 50 µg/mL; in data set [3] (72 h exposure, WST-1), over 50 µg/mL; in data set [4] (setting [5]) it was over 50 µg/mL.
On to `COc1nc(S(N)(=O)=O)c2c(ncn2C)n1` [Compound 8b, 2-Methoxy-7-methyl-6-purinesulfonamide], for which the EC50 in data set [1] (72 h exposure, WST-1) was over 50 µg/mL; in data set [2], 35 µg/mL (≈ 144 µM); in data set [3] (72 h exposure, WST-1), over 50 µg/mL; in data set [4] (setting [5]), over 50 µg/mL.
On to `CSc1nc(S(N)(=O)=O)c2c(ncn2C)n1` [Compound 8c, 2-Methylthio-7-methyl-6-purinesulfonamide], for which the EC50 is over 50 µg/mL in data set [1] (72 h exposure, WST-1); over 50 µg/mL in data set [2]; over 50 µg/mL in data set [3] (72 h exposure, WST-1); over 50 µg/mL in data set [4] (setting [5]).
For the compound `Cn1cnc2nc(S(N)(=O)=O)nc(S(N)(=O)=O)c21` [Compound 8d, 7-Methyl-2,6-purinedisulfonamide], the EC50 in data set [1] (72 h exposure, WST-1) is over 50 µg/mL; in data set [2], over 50 µg/mL; in data set [3] (72 h exposure, WST-1) it was over 50 µg/mL; in data set [4] (setting [5]), over 50 µg/mL.
Take `Cn1cnc2nc(Cl)nc(SN)c21` [Compound 10a, 2-Chloro-7-methyl-6-purinesulfenamide]: the EC50 was over 50 µg/mL in data set [1] (72 h exposure, WST-1); over 50 µg/mL in data set [2]; over 50 µg/mL in data set [3] (72 h exposure, WST-1); over 50 µg/mL in data set [4] (setting [5]).
